According to US20210341448A1, “SCREENING METHOD FOR THERAPEUTIC DRUG OR PROPHYLACTIC DRUG FOR TAUOPATHY AND DIAGNOSTIC METHOD FOR TAUOPATHY” (National Center for Geriatrics and Gerontology, priority 2018, published 2021):

How the values were obtained:
[1] = system: postsynaptic NMDAR and AMPAR; assay: Western blot of NMDA and AMPA receptor amounts on the synapse, brain slices of aging C57BL/6 mice; set-up: species or system mouse; conditions: aging C57BL/6 brain slice, 0.5% Triton X-100-insoluble membrane fraction
Method: As the molecule mechanism of NMDAR-LTD, it has been known that the AMPA receptors (hereinafter described as “AMPAR”) and/or the NMDA receptors (NMDAR) are incorporated into a cell by the endocytosis in the postsynaptic membrane caused by the activation of the NMDA receptors. Thus, an analysis was performed on the changes in amount of NMDARs and AMPARs on synapses in the brain slice specimens exposed to the tau oligomer sample and the brain slice specimens not exposed to the tau oligomer sample, prepared by the procedures of the above (2-1) and (2-2).
The brain slice specimens were frozen and disrupted in a 50-fold volume of homogenizing buffer (4 mM of HEPES, 2 mM of EGTA, 0.32 M of sucrose, pH 7.4) using a Teflon® homogenizer. The disrupted tissue solution was centrifuged at 4° C., 1,000×g for 15 minutes to thereby collect the supernatant, and the supernatant was further centrifuged at 4° C., 12,000×g for 15 minutes to thereby collect membrane fractions (pellets). The obtained membrane fractions were dissolved in tris-buffered saline containing 0.5% Triton X-100 (50 mM of Tris, 500 mM of NaCl, pH 7.4) and were centrifuged at 4° C., 20,000×g for 15 minutes. […] The western blot was carried out on the 0.5% Triton X-100-insoluble membrane fraction sample to quantify the AMPA receptor (GluA2 subunit) and the NMDA receptors (NR2a and NR2b subunits). […]

[2] = system: postsynaptic NMDAR and AMPAR; assay: Western blot of NMDA and AMPA receptor amounts on the synapse, brain slices of tau knockout mice; conditions: tau knockout mouse brain slice
Method: The brain slice specimens were frozen and disrupted in a 50-fold volume of homogenizing buffer (4 mM of HEPES, 2 mM of EGTA, 0.32 M of sucrose, pH 7.4) using a Teflon® homogenizer. The disrupted tissue solution was centrifuged at 4° C., 1,000×g for 15 minutes to thereby collect the supernatant, and the supernatant was further centrifuged at 4° C., 12,000×g for 15 minutes to thereby collect membrane fractions (pellets). The obtained membrane fractions were dissolved in tris-buffered saline containing 0.5% Triton X-100 (50 mM of Tris, 500 mM of NaCl, pH 7.4) and were centrifuged at 4° C., 20,000×g for 15 minutes. The supernatant was used as a 0.5% Triton X-100-soluble membrane fraction sample and the pellet was used as a 0.5% Triton X-100-insoluble membrane fraction sample. The western blot was carried out on the 0.5% Triton X-100-insoluble membrane fraction sample to quantify the AMPA receptor (GluA2 subunit) and the NMDA receptors (NR2a and NR2b subunits). The antibodies used were an anti-Glu2 antibody (Alomone Labs, #AGC-073) (1:1000 dilution), an anti-NR2A antibody (Alomone Labs, #AGC-002) (1:1000 dilution), and an anti-NR2B antibody (Alomone Labs, #AGC-003) (1:1000 dilution).
In the tau knockout mice, the reduction of NMDARs and AMPARs on the synapse by the exposure of the tau oligomer sample was not observed.

NT2-N cells = assay: Adhesion activity of tau oligomers to NT2-N cell surface (fluorescence microscopy); assay type: cell-based, human; conditions: on ice 30 minutes, no membrane permeabilization
Method: Cal-520 AM was loaded to the NT2-N cells prepared in the above (4-1) by the procedure of the above (4-2), exposed to the tau oligomer sample (10 μl/ml) prepared in the above (1-3) and incubated on ice for 30 minutes. Subsequently, the cells were washed 3 times with DPBS(−) (137 mM of NaCl, 2.68 mM of KCl, 1.47 mM of KH2PO4, 8.06 mM of Na2HPO4) and fixed with 4% paraformaldehyde at room temperature for 15 minutes. After thorough washing with DPBS(−) (10 minutes×3 times), blocking was done with 1% BSA and 3% donkey serum/DPBS for 30 minutes. Then, the anti-phosphorylated tau antibody (anti-pTau (paired pS409, pS412, pS413), AnaSpec, #AS-55416) (1:1500 dilution) as the primary antibody was reacted at room temperature for 1 hour, and Alexa594-labelled anti-mouse IgG (Jackson Immuno Research, #711-585-152) (1:1500 dilution) as a secondary antibody was reacted at room temperature for 30 minutes, to thereby carry out immunostaining. The stained cells were observed using a fluorescence microscope (BZ-X710, Keyence Corporation).
The HT-tau oligomer sample prepared in the above (1-4), instead of the tau oligomer sample prepared in the above (1-3), was exposed to the NT2-N cells by the same procedure as in the above (5-1). After thorough washing, fluorescence microscopic observation was carried out.

NMDAR = molecular target: T1, NMDAR (Mus musculus, UniProt P35436+P35438+Q01097); assay: Pull-down assay of HT-tau oligomer with membrane protein of tau knockout mouse brain; assay type: binding; conditions: HT-tau oligomers immobilized on HaloTag beads, western blot anti-NR1
T1 construct: from tissue
T1 sequence (P35436 23-1464, other chains not shown): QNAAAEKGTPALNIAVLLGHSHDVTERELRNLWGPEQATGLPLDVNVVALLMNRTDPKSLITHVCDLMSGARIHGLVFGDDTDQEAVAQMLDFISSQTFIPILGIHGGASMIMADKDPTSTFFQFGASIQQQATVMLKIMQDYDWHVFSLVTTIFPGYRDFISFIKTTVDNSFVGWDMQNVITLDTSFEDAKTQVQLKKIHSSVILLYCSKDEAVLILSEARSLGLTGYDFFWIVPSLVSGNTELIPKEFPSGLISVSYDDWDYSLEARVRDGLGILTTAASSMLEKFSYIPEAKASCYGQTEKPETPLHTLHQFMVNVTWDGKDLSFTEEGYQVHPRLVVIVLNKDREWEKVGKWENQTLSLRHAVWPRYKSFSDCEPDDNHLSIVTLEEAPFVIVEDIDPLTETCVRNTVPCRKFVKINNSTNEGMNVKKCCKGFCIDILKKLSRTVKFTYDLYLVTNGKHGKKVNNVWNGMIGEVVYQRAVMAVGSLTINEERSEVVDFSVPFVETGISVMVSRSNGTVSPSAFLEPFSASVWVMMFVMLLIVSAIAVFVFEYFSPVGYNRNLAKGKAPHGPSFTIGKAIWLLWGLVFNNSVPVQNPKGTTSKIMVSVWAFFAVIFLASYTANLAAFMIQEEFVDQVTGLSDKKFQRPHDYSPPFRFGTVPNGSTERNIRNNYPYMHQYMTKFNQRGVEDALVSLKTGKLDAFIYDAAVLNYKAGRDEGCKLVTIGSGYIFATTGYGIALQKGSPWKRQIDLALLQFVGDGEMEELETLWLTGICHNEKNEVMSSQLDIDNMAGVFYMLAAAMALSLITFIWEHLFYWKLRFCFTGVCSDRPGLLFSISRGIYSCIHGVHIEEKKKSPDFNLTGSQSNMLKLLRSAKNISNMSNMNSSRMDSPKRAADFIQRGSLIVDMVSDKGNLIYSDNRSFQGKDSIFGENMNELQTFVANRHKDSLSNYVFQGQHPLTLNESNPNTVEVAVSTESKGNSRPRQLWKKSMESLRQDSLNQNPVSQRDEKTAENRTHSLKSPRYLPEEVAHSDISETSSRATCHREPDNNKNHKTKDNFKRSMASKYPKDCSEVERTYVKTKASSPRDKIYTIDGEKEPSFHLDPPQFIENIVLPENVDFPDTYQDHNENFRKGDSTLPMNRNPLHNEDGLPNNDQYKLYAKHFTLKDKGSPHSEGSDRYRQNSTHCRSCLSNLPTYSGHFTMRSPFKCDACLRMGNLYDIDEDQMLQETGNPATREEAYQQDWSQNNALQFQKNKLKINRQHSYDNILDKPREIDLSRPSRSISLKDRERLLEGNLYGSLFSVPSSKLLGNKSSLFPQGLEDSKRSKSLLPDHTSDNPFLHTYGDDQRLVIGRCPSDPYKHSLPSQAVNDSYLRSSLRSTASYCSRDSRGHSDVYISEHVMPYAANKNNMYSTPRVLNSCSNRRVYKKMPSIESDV
T1 sequence (Q01097 27-1482, other chains not shown): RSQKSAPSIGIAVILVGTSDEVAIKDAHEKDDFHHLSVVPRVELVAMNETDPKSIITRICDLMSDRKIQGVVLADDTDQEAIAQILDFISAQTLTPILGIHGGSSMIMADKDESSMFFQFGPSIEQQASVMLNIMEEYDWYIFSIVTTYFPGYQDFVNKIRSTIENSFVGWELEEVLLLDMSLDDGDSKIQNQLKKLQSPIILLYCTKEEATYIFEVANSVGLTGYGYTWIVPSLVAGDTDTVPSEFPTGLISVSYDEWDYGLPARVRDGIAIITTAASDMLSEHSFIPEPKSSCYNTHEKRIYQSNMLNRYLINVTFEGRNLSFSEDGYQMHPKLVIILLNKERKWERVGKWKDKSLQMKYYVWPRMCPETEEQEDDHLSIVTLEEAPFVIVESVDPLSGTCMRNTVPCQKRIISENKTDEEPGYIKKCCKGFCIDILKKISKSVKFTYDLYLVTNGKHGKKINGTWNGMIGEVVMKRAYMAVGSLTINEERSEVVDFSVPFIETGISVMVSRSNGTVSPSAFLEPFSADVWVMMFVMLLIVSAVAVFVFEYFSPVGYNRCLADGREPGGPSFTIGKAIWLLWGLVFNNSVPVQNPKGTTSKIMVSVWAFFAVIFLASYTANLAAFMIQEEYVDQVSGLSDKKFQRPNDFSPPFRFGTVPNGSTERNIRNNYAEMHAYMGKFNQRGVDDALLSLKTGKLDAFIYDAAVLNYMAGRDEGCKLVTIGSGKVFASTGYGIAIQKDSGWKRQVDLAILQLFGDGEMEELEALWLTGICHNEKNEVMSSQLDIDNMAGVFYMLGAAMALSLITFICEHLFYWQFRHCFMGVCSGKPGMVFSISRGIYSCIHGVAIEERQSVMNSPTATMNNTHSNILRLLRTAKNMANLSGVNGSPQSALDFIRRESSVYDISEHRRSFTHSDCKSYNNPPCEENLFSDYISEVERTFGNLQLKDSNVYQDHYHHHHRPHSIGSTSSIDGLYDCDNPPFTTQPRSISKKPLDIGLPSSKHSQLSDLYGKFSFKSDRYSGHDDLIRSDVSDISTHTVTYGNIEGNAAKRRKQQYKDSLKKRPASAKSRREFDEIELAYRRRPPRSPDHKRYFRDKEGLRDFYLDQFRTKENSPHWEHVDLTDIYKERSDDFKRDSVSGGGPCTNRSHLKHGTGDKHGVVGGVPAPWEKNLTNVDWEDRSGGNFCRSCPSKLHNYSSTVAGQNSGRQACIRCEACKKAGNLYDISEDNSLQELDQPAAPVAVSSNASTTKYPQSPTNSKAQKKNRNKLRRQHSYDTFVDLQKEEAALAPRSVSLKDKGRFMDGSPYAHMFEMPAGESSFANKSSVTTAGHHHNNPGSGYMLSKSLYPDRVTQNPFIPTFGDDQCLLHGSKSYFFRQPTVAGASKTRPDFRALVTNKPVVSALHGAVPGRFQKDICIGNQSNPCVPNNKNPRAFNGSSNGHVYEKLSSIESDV
Method: Whether or not the tau oligomer and NMDAR directly bind and interact was confirmed by a pull-down assay using the HT-tau oligomer. Magne™ HaloTag beads (Promega Corporation, #G728A) (50 mg) were added to the HT-tau oligomer sample (100 μl) prepared in the above (1-4), and a binding reaction was carried out at 4° C. for 12 hours to thereby immobilize the HT-tau oligomers on the beads. Additionally, brain slice specimens were prepared from tau knockout mice (B6.129X1-Mapt^tm1Hnd/J, Jackson Laboratory) by the same procedure as in the above (2-1) and were homogenized in 50-fold volume of the lysis buffer (4 mM of HEPES, 2 mM of EGTA, 0.32 M of sucrose, 1% Protease Inhibitor Cocktail, 1% Phosphatase Inhibitor Cocktail (Nacalai Tesque Inc., #07575-51)), and the lysate was centrifuged at 4° C., 12,000×g for 15 minutes to thereby collect pellets. The obtained pellets were dissolved in a 2% cholic acid or 1% deoxycholate/TBS solution (25 mM of Tris-HCl, 150 mM of NaCl, pH 7.4) and the resultant was used as a membrane protein solution. […] The obtained tau oligomer-membrane protein complexes were applied to SDS-PAGE electrophoresis, and NMDARs were detected by the western blot. […]

## tau oligomer: polymer of human tau 2N4R monomers, polymerized with mouse brain extract and ATP, collected as pellets
[1]; GluA2, normalized to aCSF
  amount of AMPARs on the postsynaptic site: reduced
[1]; NR2a and NR2b, normalized to aCSF
  amount of NMDARs on the postsynaptic site: reduced
[2]
  reduction of AMPARs on the synapse: not observed
  reduction of NMDARs on the synapse: not observed
NT2-N cells
  adhesion to the cell surface: adhered in a patchy pattern
NMDAR
  binding of NMDAR in pull-down assay: directly bound
